Key:
[1] = system: LOXs; parameters: method as in PMID 17942241, PMID 16500106; settings: redox inhibitor for LOXs; read-out: IC50 in vitro; cited from earlier work
[2] = system: endogenous LOXs in intact RAW 264.7 macrophage cells; assay: Western blot of Labelox B labeling in intact RAW 264.7 macrophage cells; type: cell-based
Excerpt: described in the IC50 determination assay. Michaelis-Menten plots, Lineweaver-Burk plots, Km, and Vmax, are generated using GraphPad Prism 8.3.0.
1.5. Kits-Wilson kinetic analysis […]
enzyme to get a reversible complex, E*I. The dissociation constant of inhibitor (Ki) is from the formation […]
E-I. The inactivation rate constant (ki) is to describe the rate of E-I generation. To determine these inactivation parameters, Kitz-Wilson analysis was employed. The procedure has been detailed previously […]
1.6. Immunoblotting Analysis
Raw 264.7 cells were seeded in a 6-well plate at a density of 5x10^5 cells per well in high glucose DMEM media supplemented with 1% penicillin/streptomycin, 10% fetal bovine serum (FBS) (Costar Europe, Badhoevedrop, The Netherlands) at 37°C and cultured overnight. Afterward, cells were treated with the desired concentration of Labelox B at the expected time. Then, the cells were harvested and lysed with RIPA buffer containing 1X PIC. […]
Later, 30 μl of each sample was used for immunoblotting analysis. […] After washing, the blotting bands were detected with enhanced chemiluminescence (ECL) solution (GE Healthcare, Amersham, UK). […]
A549 cells were lysed by RIPA buffer supplemented with 1x PIC. After sonication and centrifugation, the supernatant was collected, and the protein concentration was determined by a Pierce BCA Protein Assay Kit (Thermo Fisher Scientific, USA). […]

[3] = target: T1, 15-LOX-1 (Homo sapiens, UniProt P16050); assay: Sandwich ELISA of Labelox B biotinylation in A549 cell lysate, 15-LOX-1 capture; type: biochemical; parameters: the endogenous LOXs were captured on an anti‐LOX antibody precoated 96‐well plate; endogenous in cells; host or cells: A549 cell lysate; settings: HRP-streptavidin detection, read-out: EC50 of labeling
T1 sequence (P16050 1-662): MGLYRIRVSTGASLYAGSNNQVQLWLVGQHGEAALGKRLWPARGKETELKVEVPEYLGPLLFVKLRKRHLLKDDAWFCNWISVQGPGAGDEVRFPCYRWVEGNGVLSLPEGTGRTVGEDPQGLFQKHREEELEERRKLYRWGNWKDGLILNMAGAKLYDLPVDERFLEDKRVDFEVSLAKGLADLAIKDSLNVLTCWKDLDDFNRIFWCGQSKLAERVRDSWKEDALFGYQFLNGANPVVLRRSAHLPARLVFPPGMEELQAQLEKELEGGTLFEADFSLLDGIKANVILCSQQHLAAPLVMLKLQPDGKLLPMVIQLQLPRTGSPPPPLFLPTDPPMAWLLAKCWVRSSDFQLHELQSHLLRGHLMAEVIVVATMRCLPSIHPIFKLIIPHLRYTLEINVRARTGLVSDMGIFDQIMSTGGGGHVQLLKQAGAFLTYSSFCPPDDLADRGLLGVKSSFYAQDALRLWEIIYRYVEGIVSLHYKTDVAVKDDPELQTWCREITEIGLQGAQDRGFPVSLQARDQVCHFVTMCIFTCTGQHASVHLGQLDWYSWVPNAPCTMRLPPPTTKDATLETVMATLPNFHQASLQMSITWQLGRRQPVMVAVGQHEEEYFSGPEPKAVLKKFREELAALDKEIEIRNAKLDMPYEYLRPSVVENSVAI
Method: Labelox B efficiently labels endogenous LOXs. Lipoxygenase labeling by Labelox B was investigated using cell‐based assays. As a first step, labeling efficiency was estimated in intact RAW 264.7 macrophage cells that were treated with Labelox B in concentrations ranging between 1 μM and 100 μM with incubation times between 0.5 h and 6 h. […] As a next step, a sandwich ELISA assay was established in order to find proof that probe Labelox B is indeed labeling proteins with lipoxygenase enzyme activity. Towards this aim, A549 cell lysates were treated with sub‐micromolar to micromolar concentrations of Labelox B. Subsequently, the endogenous LOXs were captured on an anti‐LOX antibody precoated 96‐well plate followed by detection of Labelox B mediated biotinylation using HRP‐conjugated streptavidin. […] Furthermore, probe Labelox B enabled visualization of localized LOX activity in living cells (Figure 2 c). […] The fluorescence intensity increased with increasing doses of Labelox B and labeling was observed throughout the cells in the cytoplasm and the nucleus of A549.
Figure 2 Labelox B labels endogenous LOXs in a dose‐ and time‐dependent manner. a, b) Western blot analysis of Labelox B labeled LOXs in intact RAW 264.7 for indicated doses and time points. […] The pictures were captured by a Leica DM4000b fluorescence microscope.

| Cell permeability ([2]; labels effectively in half an hour at 25 μM) | EC50 [3] [µM] | SMILES | IC50 [1] [µM] | Labeling of proteins with the size of endogenous LOXs ([2]; 1 μM to 100 μM, 0.5 h to 6 h) |
| --- | --- | --- | --- | --- |
|  |  | O=c1cc(-c2ccccc2)oc2cc(O)c(O)c(O)c12 [Baicalein] | < 4 |  |
| sufficiently cell‐permeable | ~3.5 | CCCCCC#CCC#CCOC(=O)CCCC[C@@H]1SC[C@@H]2NC(=O)N[C@@H]21 [Labelox B (3)] |  | dose and time‐dependent manner |
